Assays:
Alternaria alternata = experiment: Fungicidal activity against Alternaria alternata apple pathotype assessed as inhibition of mycelial growth by agar dilution method; format: functional, organism-based
Fusarium oxysporum = experiment: Fungicidal activity against Fusarium oxysporum assessed as inhibition of mycelial growth by agar dilution method; format: functional, organism-based
Botrytis cinerea [1] = experiment: Fungicidal activity against Botryotinia fuckeliana assessed as cucumber gray mold disease control at 31.3 ppm foliar application 24 hr before inoculation at 22 +/- 2 degC measured after 3 days by preventive manner; format: functional
Sclerotinia sclerotiorum = experiment: Fungicidal activity against Sclerotinia sclerotiorum assessed as inhibition of mycelial growth by agar dilution method; format: functional, organism-based
[2] = tested on: Colletotrichum gloeosporioides; experiment: Fungicidal activity against Glomerella cingulata assessed as inhibition of mycelial growth by agar dilution method; format: functional, organism-based
[3] = tested on: Pseudoperonospora cubensis; experiment: Fungicidal activity against Pseudoperonospora cubensis assessed as cucumber downy mildew disease control at 31.3 ppm foliar application 24 hr before inoculation on upper surface of leaf by preventive manner; format: functional
Thanatephorus cucumeris [4] = experiment: Fungicidal activity against Thanatephorus cucumeris assessed as rice sheath blight disease control at 31.3 ppm foliar application for 24 hr before inoculation at 26 +- 2 measured after 5 days by preventive manner; format: functional
[5] = tested on: Pseudoperonospora cubensis; experiment: Fungicidal activity against Pseudoperonospora cubensis assessed as cucumber downy mildew disease control at 7.8 ppm foliar application 24 hr before inoculation on upper surface of leaf by preventive manner; format: functional
Thanatephorus cucumeris [6] = experiment: Fungicidal activity against Thanatephorus cucumeris assessed as rice sheath blight disease control at 7.8 ppm foliar application for 24 hr before inoculation at 26 +- 2 measured after 5 days by preventive manner; format: functional
Pythium aphanidermatum = experiment: Fungicidal activity against Pythium aphanidermatum assessed as inhibition of mycelial growth by agar dilution method; format: functional, organism-based
Thanatephorus cucumeris [7] = experiment: Fungicidal activity against Thanatephorus cucumeris assessed as rice sheath blight disease control at 125 ppm foliar application for 24 hr before inoculation at 26 +- 2 measured after 5 days by preventive manner; format: functional
Podosphaera fuliginea [8] = experiment: Fungicidal activity against Podosphaera fuliginea assessed as cucumber powdery mildew control under greenhouse at 7.8 ppm foliar application 24 hr before inoculation on upper surface of leaf at 23 +/- 2 degC by preventive manner; format: functional
Colletotrichum lagenaria = experiment: Fungicidal activity against Colletotrichum lagenaria assessed as inhibition of mycelial growth by agar dilution method; format: functional, organism-based
Athelia rolfsii = experiment: Fungicidal activity against Athelia rolfsii assessed as inhibition of mycelial growth by agar dilution method; format: functional, organism-based, Agroathelia rolfsii
Botrytis cinerea [9] = experiment: Fungicidal activity against Botryotinia fuckeliana assessed as cucumber gray mold disease control at 125 ppm foliar application 24 hr before inoculation at 22 +/- 2 degC measured after 3 days by preventive manner; format: functional
Botrytis cinerea [10] = experiment: Fungicidal activity against Botryotinia fuckeliana assessed as cucumber gray mold disease control at 7.8 ppm foliar application 24 hr before inoculation at 22 +/- 2 degC measured after 3 days by preventive manner; format: functional
Podosphaera fuliginea [11] = experiment: Fungicidal activity against Podosphaera fuliginea assessed as cucumber powdery mildew control under greenhouse at 31.3 ppm foliar application 24 hr before inoculation on upper surface of leaf at 23 +/- 2 degC by preventive manner; format: functional
Cladosporium herbarum = experiment: Fungicidal activity against Cladosporium herbarum assessed as inhibition of mycelial growth by agar dilution method; format: functional, organism-based
Botrytis cinerea [12] = experiment: Fungicidal activity against Botryotinia fuckeliana assessed as inhibition of mycelial growth by agar dilution method; format: functional, organism-based
[13] = tested on: Pseudoperonospora cubensis; experiment: Fungicidal activity against Pseudoperonospora cubensis assessed as cucumber downy mildew disease control at 125 ppm foliar application 24 hr before inoculation on upper surface of leaf by preventive manner; format: functional
Pyricularia oryzae [14] = experiment: Fungicidal activity against Magnaporthe oryzae assessed as inhibition of mycelial growth by agar dilution method; format: functional, organism-based
Podosphaera fuliginea [15] = experiment: Fungicidal activity against Podosphaera fuliginea assessed as cucumber powdery mildew control under greenhouse at 125 ppm foliar application 24 hr before inoculation on upper surface of leaf at 23 +/- 2 degC by preventive manner; format: functional
Botrytis cinerea [16] = experiment: Fungicidal activity against Botryotinia fuckeliana assessed as cucumber gray mold disease control at 7.8 ppm foliar application 24 hr after inoculation at 22 +/- 2 degC measured after 3 days by curative manner; format: functional
[17] = tested on: Pseudoperonospora cubensis; experiment: Fungicidal activity against Pseudoperonospora cubensis assessed as cucumber downy mildew disease control at 2 ppm foliar application 24 hr after inoculation on upper surface of leaf by curative manner; format: functional
[18] = tested on: Pseudoperonospora cubensis; experiment: Fungicidal activity against Pseudoperonospora cubensis assessed as cucumber downy mildew disease control at 31.3 ppm foliar application 24 hr after inoculation on upper surface of leaf by curative manner; format: functional
Podosphaera fuliginea [19] = experiment: Fungicidal activity against Podosphaera fuliginea assessed as cucumber powdery mildew control under greenhouse at 7.8 ppm foliar application 24 hr after inoculation on upper surface of leaf at 23 +/- 2 degC by curative manner; format: functional
Botrytis cinerea [20] = experiment: Fungicidal activity against Botryotinia fuckeliana assessed as cucumber gray mold disease control at 31.3 ppm foliar application 24 hr after inoculation at 22 +/- 2 degC measured after 3 days by curative manner; format: functional
Pyricularia oryzae [21] = experiment: Fungicidal activity against Magnaporthe oryzae assessed as rice blast disease control at 10 ppm submerged application measured after 7 days; format: functional
Botrytis cinerea [22] = experiment: Fungicidal activity against Botryotinia fuckeliana assessed as cucumber gray mold disease control at 125 ppm foliar application 24 hr after inoculation at 22 +/- 2 degC measured after 3 days by curative manner; format: functional
Pyricularia oryzae [23] = experiment: Fungicidal activity against Magnaporthe oryzae assessed as rice blast disease control at 0.16 ppm submerged application measured after 7 days; format: functional
Podosphaera fuliginea [24] = experiment: Fungicidal activity against Podosphaera fuliginea assessed as cucumber powdery mildew control under greenhouse at 31.3 ppm foliar application 24 hr after inoculation on upper surface of leaf at 23 +/- 2 degC by curative manner; format: functional
[25] = tested on: Pseudoperonospora cubensis; experiment: Fungicidal activity against Pseudoperonospora cubensis assessed as cucumber downy mildew disease control at 125 ppm foliar application 24 hr after inoculation on upper surface of leaf by curative manner; format: functional
Pyricularia oryzae [26] = experiment: Fungicidal activity against Magnaporthe oryzae assessed as rice blast disease control at 0.63 ppm submerged application measured after 7 days; format: functional
Podosphaera fuliginea [27] = experiment: Fungicidal activity against Podosphaera fuliginea assessed as cucumber powdery mildew control under greenhouse at 125 ppm foliar application 24 hr after inoculation on upper surface of leaf at 23 +/- 2 degC by curative manner; format: functional
Botrytis cinerea [28] = experiment: Fungicidal activity against Botryotinia fuckeliana assessed as cucumber gray mold disease control at 2 ppm foliar application 24 hr after inoculation at 22 +/- 2 degC measured after 3 days by curative manner; format: functional
Podosphaera fuliginea [29] = experiment: Fungicidal activity against Podosphaera fuliginea assessed as cucumber powdery mildew control under greenhouse at 2 ppm foliar application 24 hr after inoculation on upper surface of leaf at 23 +/- 2 degC by curative manner; format: functional
[30] = tested on: Pseudoperonospora cubensis; experiment: Fungicidal activity against Pseudoperonospora cubensis assessed as cucumber downy mildew disease control at 7.8 ppm foliar application 24 hr after inoculation on upper surface of leaf by curative manner; format: functional
Pyricularia oryzae [31] = experiment: Fungicidal activity against Magnaporthe oryzae assessed as rice blast disease control at 2.5 ppm submerged application measured after 7 days; format: functional
Botrytis cinerea [32] = experiment: Fungicidal activity against Botryotinia fuckeliana assessed as cucumber gray mold disease control at 2 ppm foliar application 24 hr before inoculation at 22 +/- 2 degC measured after 3 days by preventive manner; format: functional
Podosphaera fuliginea [33] = experiment: Fungicidal activity against Podosphaera fuliginea assessed as cucumber powdery mildew control under greenhouse at 2 ppm foliar application 24 hr before inoculation on upper surface of leaf at 23 +/- 2 degC by preventive manner; format: functional
Thanatephorus cucumeris [34] = experiment: Fungicidal activity against Thanatephorus cucumeris assessed as rice sheath blight disease control at 2 ppm foliar application for 24 hr before inoculation at 26 +- 2 measured after 5 days by preventive manner; format: functional
[35] = tested on: Pseudoperonospora cubensis; experiment: Fungicidal activity against Pseudoperonospora cubensis assessed as cucumber downy mildew disease control at 2 ppm foliar application 24 hr before inoculation on upper surface of leaf by preventive manner; format: functional

Row | SMILES | EC50 (Alternaria alternata) | EC50 (Fusarium oxysporum) | Activity (Botrytis cinerea [1]) | EC50 (Sclerotinia sclerotiorum) | EC50 [2] | Activity [3] | Activity (Thanatephorus cucumeris [4]) | Activity [5] | Activity (Thanatephorus cucumeris [6]) | EC50 (Pythium aphanidermatum) | Activity (Thanatephorus cucumeris [7]) | Activity (Podosphaera fuliginea [8]) | EC50 (Colletotrichum lagenaria) | EC50 (Athelia rolfsii) | Activity (Botrytis cinerea [9]) | Activity (Botrytis cinerea [10]) | Activity (Podosphaera fuliginea [11]) | EC50 (Cladosporium herbarum) | Activity [13] | Activity (Podosphaera fuliginea [15]) | further results
1 | CNC(=O)/C(=N\OC)c1ccccc1Oc1ccccc1 | > 64 ppm | 58.1 ppm | 36% | 11.9 ppm | 16.2 ppm | 0% | 0% | 0% | 0% | 28.1 ppm | 50% | 40% | 61.8 ppm | 41.1 ppm | 44% | 18% | 100% | 41.8 ppm | 70% | 100% | EC50 (Botrytis cinerea [12]): 1.7 ppm; EC50 (Pyricularia oryzae [14]): 49.1 ppm
2 | CNC(=O)/C(=N/OC)c1ccccc1Oc1ccccc1 [METOMINOSTROBIN] | 20.8 ppm | 6.2 ppm | 92% | 2 ppm | 7.2 ppm | 100% | 70% | 30% | 50% | 2.8 ppm | 70% | 70% | 4.7 ppm | 2.5 ppm | 95% | 73% | 100% | 4.5 ppm | 100% | 100% | Activity (Botrytis cinerea [16]): 50%; Activity [17]: 50%; Activity [18]: 50%; Activity (Podosphaera fuliginea [19]): 50%; Activity (Botrytis cinerea [20]): 50%; Activity (Pyricularia oryzae [21]): 50%; Activity (Botrytis cinerea [22]): 50%; Activity (Pyricularia oryzae [23]): 50%; Activity (Podosphaera fuliginea [24]): 50%; Activity [25]: 50%; Activity (Pyricularia oryzae [26]): 50%; Activity (Podosphaera fuliginea [27]): 50%; EC50 (Botrytis cinerea [12]): 1.1 ppm; Activity (Botrytis cinerea [28]): 50%; EC50 (Pyricularia oryzae [14]): 5.6 ppm; Activity (Podosphaera fuliginea [29]): 50%; Activity [30]: 50%; Activity (Pyricularia oryzae [31]): 50%
3 | CNC(=O)/C(=N/OC)c1ccccc1Oc1ccccc1[N+](=O)[O-] | – | – | <70% | – | – | <70% | <70% | <70% | <70% | – | <70% | <70% | – | – | <70% | <70% | <70% | – | <70% | <70% | Activity (Botrytis cinerea [16]): <50%; Activity [17]: <50%; Activity [18]: <50%; Activity (Podosphaera fuliginea [19]): <50%; Activity (Botrytis cinerea [20]): <50%; Activity (Botrytis cinerea [22]): <50%; Activity (Botrytis cinerea [32]): <70%; Activity (Podosphaera fuliginea [24]): <50%; Activity [25]: <50%; Activity (Podosphaera fuliginea [27]): <50%; Activity (Podosphaera fuliginea [33]): <70%; Activity (Botrytis cinerea [28]): <50%; Activity (Thanatephorus cucumeris [34]): <70%; Activity (Podosphaera fuliginea [29]): <50%; Activity [30]: <50%; Activity [35]: <70%

Source: ChEMBL document CHEMBL3045600, “Synthesis and Fungicidal Activities of Phenoxyphenyl Alkoxyiminoacetamide Derivatives” (J Pestic Sci, 1998)
